According to BindingDB's records for patent US20250188095 (Jiangsu Nhwa Pharmaceutical Co., 2025):

Molecular target: T1, Orexin/Hypocretin receptor type 1 (Homo sapiens, UniProt O43613)
T1 sequence (O43613 whole entry): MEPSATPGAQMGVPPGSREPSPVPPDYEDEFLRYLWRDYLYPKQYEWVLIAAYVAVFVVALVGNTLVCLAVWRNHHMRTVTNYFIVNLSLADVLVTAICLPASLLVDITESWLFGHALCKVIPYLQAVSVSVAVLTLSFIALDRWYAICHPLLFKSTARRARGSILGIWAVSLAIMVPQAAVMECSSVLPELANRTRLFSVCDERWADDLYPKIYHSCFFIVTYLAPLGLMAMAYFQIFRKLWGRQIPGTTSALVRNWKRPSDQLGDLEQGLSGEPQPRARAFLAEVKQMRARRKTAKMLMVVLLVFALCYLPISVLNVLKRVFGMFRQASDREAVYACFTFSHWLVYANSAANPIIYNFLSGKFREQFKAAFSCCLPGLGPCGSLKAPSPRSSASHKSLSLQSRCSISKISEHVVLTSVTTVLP
Assay: In Vitro Activity Assay
Procedure: The cells were centrifuged at 1000 rpm for 5 min, and the supernatant was discarded. 3 mL of PBS was added, and the mixture was gently pipetted to be mixed well. The cells were centrifuged again at 1000 rpm for 5 min, and the supernatant was discarded.

IC50: > 1000 nM
Compound: Cc1cc(C)nc(N2C[C@H]3CN(C(=O)c4c(-c5ccsc5)cn5ccccc45)C[C@H]3C2)n1 [US20250188095, Example 17]
